# Test results taken from ChEMBL document CHEMBL3885861, “Open TG-GATES”.
# Species on record: Rattus norvegicus
# Assay: Open TG-GATES - Regimen: Single
# Type: toxicity, organism-based, Sprague-Dawley
# Design: regimen Single, gender Male, age 6 weeks
# Settings: in vivo, po, 0 mg/kg, route gavage, dose level Control; for APTT / Bas / Eos / Fbg / Hb / Ht / Lym / MCH / MCHC / MCV / Mono / Neu / PT / Plat / RBC / Ret: tissue Blood; for KIDNEY_L / KIDNEY_R / KIDNEY_TOTAL: tissue Kidney; for LIVER: tissue Liver; for ALP / ALT / AST / BUN / CRE / Ca / Cl / DBIL / GLC / IP / K / LDH / Na / PL / RALB / TBIL / TC / TG / TP / gamma-GTP: tissue Plasma
structure (smiles),measurement,setting,value
COc1ccc2[nH]c([S+]([O-])Cc3ncc(C)c(OC)c3C)nc2c1 (stereo not drawn) [OMEPRAZOLE],TERMINAL_BW,3 h,218.5 g
same,APTT,3 h,20.5 s
same,Bas,3 h,0%
same,Eos,3 h,1%
same,Fbg,3 h,206.4 mg/dL
same,Hb,3 h,13 g/dL
same,Ht,3 h,38.5%
same,Lym,3 h,77.8%
same,MCH,3 h,21.4 pg
same,MCHC,3 h,33.9%
same,MCV,3 h,63.1 fL
same,Mono,3 h,2.4%
same,Neu,3 h,18.6%
same,PT,3 h,12.5 s
same,Plat,3 h,122.7 x10_4/uL
same,RBC,3 h,610.2 x10_4/ul
same,Ret,3 h,7.2%
same,KIDNEY_L,3 h,0.9 g
same,KIDNEY_R,3 h,0.9 g
same,KIDNEY_TOTAL,3 h,1.9 g
same,LIVER,3 h,9.9 g
same,ALP,3 h,855.8 IU/L
same,ALT,3 h,33.2 IU/L
same,AST,3 h,68.4 IU/L
same,BUN,3 h,12.6 mg/dL
same,CRE,3 h,0.4 mg/dL
same,Ca,3 h,10.8 mg/dL
same,Cl,3 h,100.6 meq/L
same,DBIL,3 h,0.064 mg/dL
same,GLC,3 h,191.8 mg/dL
same,IP,3 h,8.3 mg/dL
same,K,3 h,3.8 meq/L
same,LDH,3 h,171.2 IU/L
same,Na,3 h,140.4 meq/L
same,PL,3 h,130.8 mg/dL
same,RALB,3 h,3.1 g/dL
same,TBIL,3 h,0.1 mg/dL
same,TC,3 h,69.4 mg/dL
same,TG,3 h,59.4 mg/dL
same,TP,3 h,5.3 g/dL
same,gamma-GTP,3 h,1 IU/L
same,TERMINAL_BW,6 h,218.1 g
same,APTT,6 h,19.3 s
same,Bas,6 h,0%
same,Eos,6 h,0.8%
same,Fbg,6 h,220.4 mg/dL
same,Hb,6 h,13.6 g/dL
same,Ht,6 h,39.7%
same,Lym,6 h,72.4%
same,MCH,6 h,21.4 pg
same,MCHC,6 h,34.1%
same,MCV,6 h,62.7 fL
same,Mono,6 h,3.8%
same,Neu,6 h,22.2%
same,PT,6 h,12.6 s
same,Plat,6 h,123.4 x10_4/uL
same,RBC,6 h,634.2 x10_4/ul
same,Ret,6 h,7.1%
same,KIDNEY_L,6 h,1 g
same,KIDNEY_R,6 h,1 g
same,KIDNEY_TOTAL,6 h,1.9 g
same,LIVER,6 h,9.9 g
same,ALP,6 h,923.8 IU/L
same,ALT,6 h,32.6 IU/L
same,AST,6 h,66 IU/L
same,BUN,6 h,11 mg/dL
same,CRE,6 h,0.3 mg/dL
same,Ca,6 h,10.7 mg/dL
same,Cl,6 h,100.8 meq/L
same,DBIL,6 h,0.07 mg/dL
same,GLC,6 h,201 mg/dL
same,IP,6 h,8.8 mg/dL
same,K,6 h,3.8 meq/L
same,LDH,6 h,181.6 IU/L
same,Na,6 h,140 meq/L
same,PL,6 h,141.4 mg/dL
same,RALB,6 h,3.3 g/dL
same,TBIL,6 h,0.1 mg/dL
same,TC,6 h,73.4 mg/dL
same,TG,6 h,81.2 mg/dL
same,TP,6 h,5.4 g/dL
same,gamma-GTP,6 h,1.8 IU/L
same,TERMINAL_BW,9 h,218.2 g
same,APTT,9 h,20.9 s
same,Bas,9 h,0%
same,Eos,9 h,1%
same,Fbg,9 h,212.8 mg/dL
same,Hb,9 h,13.3 g/dL
same,Ht,9 h,38.6%
same,Lym,9 h,78%
same,MCH,9 h,21.5 pg
same,MCHC,9 h,34.3%
same,MCV,9 h,62.6 fL
same,Mono,9 h,3%
same,Neu,9 h,17.4%
same,PT,9 h,13.1 s
same,Plat,9 h,119.3 x10_4/uL
same,RBC,9 h,615.6 x10_4/ul
same,Ret,9 h,7.4%
same,KIDNEY_L,9 h,0.9 g
same,KIDNEY_R,9 h,1 g
same,KIDNEY_TOTAL,9 h,1.9 g
same,LIVER,9 h,9.1 g
same,ALP,9 h,764.2 IU/L
same,ALT,9 h,28 IU/L
same,AST,9 h,59.2 IU/L
same,BUN,9 h,11.4 mg/dL
same,CRE,9 h,0.3 mg/dL
same,Ca,9 h,10.7 mg/dL
same,Cl,9 h,101 meq/L
same,DBIL,9 h,0.06 mg/dL
same,GLC,9 h,188.4 mg/dL
same,IP,9 h,9.4 mg/dL
same,K,9 h,3.9 meq/L
same,LDH,9 h,175.4 IU/L
same,Na,9 h,140.4 meq/L
same,PL,9 h,122.2 mg/dL
same,RALB,9 h,3.3 g/dL
same,TBIL,9 h,0.1 mg/dL
same,TC,9 h,66.4 mg/dL
same,TG,9 h,54.6 mg/dL
same,TP,9 h,5.5 g/dL
same,gamma-GTP,9 h,1.4 IU/L
same,TERMINAL_BW,24 h,234.9 g
same,APTT,24 h,20.7 s
same,Bas,24 h,0%
same,Eos,24 h,1%
same,Fbg,24 h,229.6 mg/dL
same,Hb,24 h,13.2 g/dL
same,Ht,24 h,38.7%
same,Lym,24 h,78.6%
same,MCH,24 h,21.7 pg
same,MCHC,24 h,34.1%
same,MCV,24 h,63.6 fL
same,Mono,24 h,2.6%
same,Neu,24 h,17.2%
same,PT,24 h,12.1 s
same,Plat,24 h,118.9 x10_4/uL
same,RBC,24 h,608 x10_4/ul
same,Ret,24 h,6.6%
same,KIDNEY_L,24 h,1 g
same,KIDNEY_R,24 h,1 g
same,KIDNEY_TOTAL,24 h,2 g
same,LIVER,24 h,11.8 g
same,ALP,24 h,979.4 IU/L
same,ALT,24 h,35.4 IU/L
same,AST,24 h,62.2 IU/L
same,BUN,24 h,17.4 mg/dL
same,CRE,24 h,0.4 mg/dL
same,Ca,24 h,11.1 mg/dL
same,Cl,24 h,101.2 meq/L
same,DBIL,24 h,0.094 mg/dL
same,GLC,24 h,216 mg/dL
same,IP,24 h,7.7 mg/dL
same,K,24 h,4.2 meq/L
same,LDH,24 h,192 IU/L
same,Na,24 h,140.6 meq/L
same,PL,24 h,151.6 mg/dL
same,RALB,24 h,3.4 g/dL
same,TBIL,24 h,0.1 mg/dL
same,TC,24 h,79.6 mg/dL
same,TG,24 h,109 mg/dL
same,TP,24 h,5.5 g/dL
